Experiments:
[1] = design: species or system Long-Evans female rats; settings: rat, in vivo
Protocol: Ten Long-Evans female rats were divided into two groups of five each. The rats were fed Purina® lab chow mixed with CDCA or dried hog bile. The dried hog bile contains approximately 25% CDCA and approximately 40% HDCA and was mixed in the feed at four times the concentration as CDCA so that each group of rats would receive approximately 600 mg. CDCA/kg./day. Following a 2 week treatment, the 10 rats plus five control rats were sacrificed and the blood collected for liver enzyme determinations.

[2] = Pharmacological studies employing rats: liver damage and safening effect (summary statements); assay type: in vivo
Excerpt: The compositions are generally administered in a ratio of CDCA to HDCA in the range of from about 0.7 to about 2.0 and, preferably in the range of from about 0.8 to about 1.5. […] Hog bile generally contains from about 10 to about 50% CDCA and from about 10 to about 50% of HDCA in addition to other bile acids.

[3] = CDCA alone, or HDCA with CDCA relative to CDCA

C[C@H](CCC(=O)O)[C@H]1CC[C@H]2[C@@H]3[C@H](O)C[C@@H]4C[C@H](O)CC[C@]4(C)[C@H]3CC[C@]12C [CDCA, 3α, 7α-dihydroxy-5β-cholanic acid]
Bodyweights, Week 0 [1]: 284.6 gms
Bodyweights, Week 1 [1]: 256.4 gms
Feed Consumption, Week 0 [1]: 18.6 gms/da
Feed Consumption, Week 2 [1]: 11.7 gms/da
periportal hepatitis ([2]; CDCA alone): slight to mild periportal hepatitis
alkaline phosphatase (alk. phos.) in the blood [2, 3]: elevations
serum glutamic pyruvic transaminase (SGPT) in the blood [2, 3]: elevations
serum glutamic-oxaloacetic transaminase (SGOT) in the blood [2, 3]: elevations
nuclear enlargement of the hepatocytes ([2]; CDCA alone, slight to mild periportal hepatitis also seen): nuclear enlargement of the hepatocytes
